Experiments:
[1] = system: 125I-IGF-2 binding, rat adipocytes; assay: IGF-2 binding to rat adipocytes (Example 1, Table 1); format: cell-based; conditions: insulin 10 ng/ml, vanadate 1 mM and/or H2O2 1 mM, 15 min preincubation at 37° C.; control = 125I-IGF-2 alone
[2] = system: adipocytes (protein synthesis); assay: Protein synthesis in adipocytes, 3H-leucine incorporation (Example 5, Table 2); format: cell-based
Description: Adipocytes were isolated by collagenase digestion and protein synthesis was assessed by the incorporation 3,4,5-^3 H-leucine (0.5 uCi/ml) over 1 h at 37° C. into trichloroacetic acid (10%) precipitable material.
This was followed by a 1 h incubation with radiolabelled leucine. The reaction was terminated by the addition of cold TCA and centrifugation. The pellet was counted in a beta counter.

[3] = Blood glucose in live rats after jugular vein injection (Example 6A); format: in vivo, rat; conditions: 0.2 to 0.4 ml of 1 mM solution, 200 g rats
Description: In live rat studies vanadate (sodium salt) and the reaction mixture (phosphate-buffered saline containing vanadate and H2 O2 at neutral pH) was injected into 200 g rats via the internal jugular vein. […] This decrease was short-lived.

[4] = system: 125I-IGF-II binding, rat adipocytes; assay: Binding of labelled IGF-II to rat adipocytes, vanadate dose response (Example 2, FIG. 2); format: cell-based; conditions: vanadate alone; % of that seen with maximal doses of insulin
Description: Determination of ^125 I-IGF-II binding (shown in FIG. 2) is achieved by incubating adipocytes with vanadate (white circles on Figure); hydrogen peroxide (1mM) plus vanadate (black circles); and insulin (black squares) for 15 minutes at 37 C. Each value shown is the mean ± S.E. (Standard Error) of three separate experiments.

[5] = system: rat adipocytes (lipogenesis); assay: Lipogenesis in rat adipocytes (Example 4); format: cell-based; conditions: 10^-7 M vanadate with H2O2 10^-3 M equals vanadate alone at 10^-4 M
[6] = system: rat adipocytes (lipolysis); assay: Lipolysis in rat adipocytes (Example 4); format: cell-based; conditions: vanadate with H2O2 10^-3 M, or vanadate alone
[7] = Blood sugar in intact rats after jugular vein injection (Example 6B); format: in vivo, rat (male Sprague-Dawley); conditions: 0.5 ml of 2 mM vanadate
Description: Solutions were injected into the jugular vein and blood samples were removed for determination of blood sugar by a standard glucose oxidase procedure.

diabetic rats = conditions: drinking water; cited from earlier work
[8] = system: 125I-IGF-2 cell surface binding, fat cell; conditions: vanadate alone; cited from earlier work
[9] = system: insulin receptor tyrosine kinase; assay: Insulin receptor tyrosine kinase activation in adipocytes, 32P incorporation into poly (Glu, Tyr) (Example 3, FIG. 3); format: cell-based, rat

Row | Compound | IGF-2 binding, % of control [1] | activity at 100 µM ([2]; Adipocyte, 100 uM (H2O2 concentration), 2 h at 37° C., then 1 h radiolabelled leucine, n=4-5, read-out: Leucine Incorp (% of control ± S.E.)) [%] | effect on blood glucose (in words) [3] | Leucine Incorp (% of control ± S.E.) ([2]; 2 uM, 2 h at 37° C., then 1 h radiolabelled leucine, n=2) | Leucine Incorp (% of control ± S.E.) ([2]; 10 uM, 2 h at 37° C., then 1 h radiolabelled leucine, n=6) | Leucine Incorp (% of control ± S.E.) ([2]; 50 uM, 2 h at 37° C., then 1 h radiolabelled leucine, n=5) | Leucine Incorp (% of control ± S.E.) ([2]; 100 uM (H2O2 concentration), 2 h at 37° C., then 1 h radiolabelled leucine, n=4-5) | stimulation of leucine incorporation (in words) ([2]; vanadate alone, 2-100 uM) | maximal effect relative to maximal doses of insulin (IGF-II binding) [4] | vanadate concentration giving equal augmentation of lipogenesis [5] | vanadate concentration inhibiting lipolysis maximally [6] | effect in lowering blood sugar (in words) [7] | effect on blood glucose (in words) (diabetic rats) | effect on cardiac performance (in words) (diabetic rats) | insulin mimicking action (in words) [8] | augmentation of kinase activity over control ([9]; 10^-3 M alone) [%] | augmentation of kinase activity over control ([9]; insulin 10 ng/ml alone) [%]
1 | OO [H2 O2, hydrogen peroxide] | 138 ± 12 % of control | 105 ± 4.7 |  |  |  |  |  |  |  |  |  |  |  |  |  |  | 
2 | [O]=[V]([O-])([O-])[O-] [Vanadate, vanadate] | 172 ± 10 % of control |  | no effect | 101 ± 5.0 % of control | 104 ± 3.5 % of control | 105 ± 6.0 % of control | 107 ± 8.0 % of control | does not significantly stimulate leucine incorporation | about 60% | 10^-4 M | 10^-3 M | no effect at all | lower blood glucose | improve cardiac performance | weak mimicker of insulin action | 32 | 
3 | Insulin: insulin |  |  |  |  |  |  |  |  |  |  |  |  |  |  |  |  | 349
